Data published in patent US8318704B2, “Modulation of neural stem cells and neural progenitor cells” (NeuroNova AB, priority 2002, dated 2012).

Legend:
[1] = test system: new born cells in the caudate putamen; experiment: Intracerebroventricular infusion, BrdU-positive cells in caudate putamen; assay type: in vivo, rat; settings: S1P 10 μM pump concentration, lateral ventricle, 0.5 μl/hr for 14 days
Protocol: Arrival of animals: 06.1102 (30 animals), 13.11.02 (30 animals) and 20.11.02 (10 animals): Male Wistar rats, ca. 270 g, Harlan-Winkelmann Germany;
Brain infusion kit II; Alzet osmotic mini-pump model 2002 (volume of pump: 200 μl, plus ca. 30-50 μl volume in tubing/flow-moderator; pumping rate: 0.5 μl/h (=12 μl/d) for 14 days; vehicle solution aCSF (artificial cerebrospinal fluid: 148 mM NaCl, 3 mM KCl, 1.4 mM CaCl2, 0.8 mM MgCl2, 1.5 mM Na2HPO4, 0.2 mM NaH2PO4, pH 7.4, sterile filtration; stored at −20° C.
provided as 1 mg solid, dissolved in DMSO, aliquoted and kept in freezer, thawed and added aCSF to make pump solution, 0.1% DMSO maximum. […]
Quantification in ipsilateral hemisphere: two slices (see point “Immunohistochemistry”) counting 2× one box (0.25 mm^2) in caudate putamen on each section.
S1P (10 μM pump concentration) or vehicle, and BrdU (1 mg/ml pump concentration) was infused into the lateral ventricle of adult male Wistar rats at a rate of 0.5 μl/hr for 14 days. […] BrdU incorporated into the nuclei of proliferating cells was detected by DAB-immunohistochemistry. […] For quantification (FIG. 10), sections were taken in duplicate for each animal and counted manually (see above Methods). Results are expressed as the mean±SEM number of BrdU positive cells/0.25 mm^2 (S1P n=8) (Vehicle n=12) (**p<0.005 relative to Vehicle).

adult mouse NSC [2] = experiment: 3H-thymidine incorporation into DNA of NSC; assay type: cell-based
Protocol: (§1) The anterior lateral wall of the lateral ventricle of 5-6 week old mice was enzymatically dissociated in 0.8 mg/ml hyaluronidase and 0.5 mg/ml trypsin in DMEM containing 4.5 mg/ml glucose and 80 units/ml DNase at 37° C. for 20 min. The cells were gently triturated and mixed with three volumes of Neurosphere medium (DMEM/F12, B27 supplement, 12.5 mM HEPES pH7.4) containing 20 ng/ml EGF (unless otherwise stated), 100 units/ml penicillin and 100 μg/ml streptomycin. After passing through a 70 μm strainer, the cells were pelleted at 160×g for 5 min. The supernatant was subsequently removed and the cells resuspended in Neurosphere medium supplemented as above, plated out in culture dishes and incubated at 37° C. Neurospheres were ready to be split approximately 7 days after plating.
(§2) To split neurosphere cultures, neurospheres were collected by centrifugation at 160×g for 5 min. The neurospheres were resuspended in 0.5 ml Trypsin/EDTA in HBSS (1×), incubated at 37° C. for 2 min and triturated gently to aid dissociation. Following a further 3 min incubation at 37° C. and trituration, 3 volumes of ice cold NSPH-media-EGF were added to stop further trypsin activity. The cells were pelleted at 220×g for 4 min, resuspended in fresh Neurosphere medium supplemented with 20 ng/ml EGF and 1 nM bFGF plated out and incubated at 37° C.
(§3) In assays including pertussis toxin, the toxin was added at 100 ng/ml 24 hours prior to the second passaging. New toxin was added at the same dose in combination with S1P or LPA to the cells and assayed as described above.
To determine thymidine incorporation into DNA, neurospheres were split and seeded in Neurosphere medium as single cells in 96-well plates, 10 000 cells/well. Substances to be measured were added in quadruplicates and cells were incubated at 37° C. for 3 days. 3H-thymidine, 10 uCi/ml, was present the last 24 hours. Cells were harvested on to a filter paper and radioactivity was measured. 3H-thymidine (6,7 Ci/mmol) was from PerkinElmer.

[3] = in vitro EC50 listed in the handling of substances table
adult mouse NSC [4] = experiment: Intracellular ATP assay (cell number) in neurosphere-derived NSC; assay type: cell-based; settings: for intracellular ATP levels, and hence NSC number, factor alone: S1P 100 nM or EGF 0.1 nM alone, 3 days (FIG. 8); for intracellular ATP levels, and hence cell number, relative to control: 3 days
Protocol: as §1, §2
Mouse neurospheres, cultured as described above, from passage 2, were seeded in DMEM/F12 supplemented with B27 into a 96-well plate as single cells (10000 cells/well) to the substances to be measured were added at the concentrations indicated. After 3 days incubation, intracellular ATP was measured using the ViaLight kit (BioWhittaker) according to the manufacturer's instructions. S1P and LPA were purchased from Avanti Polar Lipids, Inc.
as §3
In the experiment analysing the combinatory effect of S1P and EGF, S1P at 100 nM was co-incubated with 0.1 nM EGF for 3 days.

primary adult mouse NSC = experiment: Primary NSC proliferation and neurosphere formation without growth factors; assay type: cell-based; settings: LPA 10 μM, no EGF, 7 days (FIG. 9)
Protocol: as §1
Anterior lateral wall of the lateral ventricle was dissociated as described in the Methods above (Method A), and the cells resuspended in Neurosphere medium without EGF. The cell suspension was divided into a 24-well plate with triplicates of control (no addition), LPA treated and EGF (1 nM) treated cells. The final concentration of LPA was 10 μM. After 7 days the spheres were counted, inspected for growth and morphology and photographed using a Nikon Eclipse TE300 microscope and Nikon Spot Insight camera.

Compound	BrdU labeling of cells in coronal sections through the caudate putamen relative to vehicle ([1]; adult male Wistar rats)	number of BrdU positive cells/0.25 mm^2 (new born cells) in the caudate putamen relative to vehicle ([1]; n=8, p<0.005 (FIG. 10))	incorporation of tritiated thymidine relative to control (adult mouse NSC [2]; S1P 1-100 nM, 3 days (FIG. 4B))	EC50 [3]	intracellular ATP levels, and hence NSC number, factor alone (adult mouse NSC [4])	intracellular ATP levels, and hence cell number, relative to control (adult mouse NSC [4]; S1P 1-100 nM, non-adherent conditions (FIG. 4A))	incorporation of tritiated thymidine relative to control (adult mouse NSC [2]; LPA 4 nM (FIG. 5B))	incorporation of tritiated thymidine relative to control (adult mouse NSC [2]; LPA 10 nM (FIG. 5B))	incorporation of tritiated thymidine relative to control (adult mouse NSC [2]; LPA 10 μM (FIG. 5B))	sizes and number of neurospheres versus control (primary adult mouse NSC)	intracellular ATP levels, and hence cell number, relative to control (adult mouse NSC [4]; LPA, two phases: 1-10 nM and 0.11-10 μM, non-adherent conditions (FIG. 5A))
CCCCCCCCCCCCC/C=C/[C@@H](O)[C@@H](N)COP(=O)(O)O [S1P, sphingosine-1-phosphate]	substantially greater number	significant increase	Greater incorporation	30 nM	increased	statistically significant increase					
EGF: mitogen (growth factor) for neural progenitors, from BD Biosciences					increased						
lysophosphatidic acid [LPA]							Greater incorporation	no significant incorporation	Greater incorporation	observably greater	statistically significant increases
